Experimental data from patent US9434747B2, “Methods of treating diabetes” (Medivation Technologies, Inc., priority 2011, dated 2016).

What was measured:
[1] = target: T1, human recombinant adrenergic α2A receptor (Homo sapiens, UniProt P08913); test: Radioligand binding assay, adrenergic α2A ([3H]MK-912); conditions: compound at 0.1 μM; 1 nM [3H]MK-912; Sf9 cells; read-out: Percentage inhibition of ligand binding, Adrenergic α2A
T1 construct: expressed in transfected cells; host or cells: insect Sf9 cells
T1 sequence (P08913 1-465): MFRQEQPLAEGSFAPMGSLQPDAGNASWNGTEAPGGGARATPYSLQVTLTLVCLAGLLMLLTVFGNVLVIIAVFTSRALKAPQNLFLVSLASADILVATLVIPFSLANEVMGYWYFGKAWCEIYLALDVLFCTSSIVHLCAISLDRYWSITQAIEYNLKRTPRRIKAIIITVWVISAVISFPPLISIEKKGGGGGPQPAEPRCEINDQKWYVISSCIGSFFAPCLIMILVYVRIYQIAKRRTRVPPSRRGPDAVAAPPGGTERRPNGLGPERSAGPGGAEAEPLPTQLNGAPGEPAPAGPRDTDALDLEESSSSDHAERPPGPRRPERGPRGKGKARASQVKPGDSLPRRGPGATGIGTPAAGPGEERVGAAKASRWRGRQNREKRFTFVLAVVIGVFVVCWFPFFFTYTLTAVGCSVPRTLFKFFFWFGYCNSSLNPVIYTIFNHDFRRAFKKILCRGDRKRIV
Method: To evaluate in radioligand binding assays the activity of compounds, human recombinant adrenergic α2A receptor expressed in insect Sf9 cells (Uhlen, S. et al, J. Pharmacol. Exp. Ther. 271:1558, 1994) in a modified Tris-HCl buffer (50 mM Tris-HCl, pH 7.4, 12.5 mM MgCl2, 2 mM EDTA) was used. Compounds were incubated with 1 nM [^3H]MK-912 for 60 min at 25° C. MK912 is (2S-trans)-1,3,4,5′,6,6′,7,12b-octahydro-1′,3′-dimethyl-spiro[2H-benzofuro[2,3-a]quinolizine-2,4′(1′H)-pyrimidin]-2′(3′H)-one hydrochloride. Non-specific binding was estimated in the presence of 10 μM WB-4101 (2-(2,6-Dimethoxyphenoxyethyl)aminomethyl-1,4-benzodioxane hydrochloride). Receptor proteins were filtered and washed, the filters were then counted to determine [^3H]MK-912 specifically bound. Compounds were screened at 1 μM or lower, using 1% DMSO as vehicle. Compounds were tested in this biochemical assay and percent inhibition of specific binding was determined. Biochemical assay results are presented as the percent inhibition of specific binding in Tables B1A-B1D.

[2] = target: T2, human recombinant adrenergic α2B receptor (Homo sapiens, UniProt P18089); test: Radioligand binding assay, adrenergic α2B ([3H]Rauwolscine); conditions: compound at 0.1 μM; 2.5 nM [3H]Rauwolscine; CHO-K1 cells; read-out: Percentage inhibition of ligand binding, Adrenergic α2B
T2 construct: expressed in transfected cells; host or cells: Chinese hamster ovary (CHO) K1 cells
T2 sequence (P18089 1-450): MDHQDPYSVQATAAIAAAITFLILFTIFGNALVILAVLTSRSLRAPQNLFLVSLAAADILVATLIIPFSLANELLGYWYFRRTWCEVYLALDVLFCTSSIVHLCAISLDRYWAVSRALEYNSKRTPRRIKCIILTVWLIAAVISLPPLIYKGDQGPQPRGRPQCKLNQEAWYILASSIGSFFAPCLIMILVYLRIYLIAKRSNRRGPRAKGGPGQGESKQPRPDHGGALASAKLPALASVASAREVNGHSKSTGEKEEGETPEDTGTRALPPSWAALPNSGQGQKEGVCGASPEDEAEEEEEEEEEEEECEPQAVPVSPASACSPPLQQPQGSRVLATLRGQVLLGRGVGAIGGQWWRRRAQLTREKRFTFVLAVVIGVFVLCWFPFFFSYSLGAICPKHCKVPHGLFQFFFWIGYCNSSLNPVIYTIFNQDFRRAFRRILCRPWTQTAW
Method: To evaluate in radioligand binding assays the activity of compounds, human recombinant adrenergic α2B receptor expressed in Chinese hamster ovary (CHO) K1 cells (Uhlen, S. et al, Eur. J. Pharmacol. 343(1):93, 1998) in a modified Tris-HCl buffer (50 mM Tris-HCl, pH 7.4, 12.5 mM MgCl2, 1 mM EDTA, 0.2% BSA) was used. Compounds were incubated with 2.5 nM [^3H]Rauwolscine for 60 min at 25° C. Non-specific binding was estimated in the presence of 10 μM Prazosin. Receptor proteins were filtered and washed, the filters were then counted to determine [^3H]Rauwolscine specifically bound. Compounds were screened at 1 μM or lower, using 1% DMSO as vehicle. Compounds were tested in this biochemical assay and percent inhibition of specific binding was determined. Biochemical assay results are presented as the percent inhibition of specific binding in Tables B1A-B1D.

[3] = target: T3, rat adrenergic α1B receptor (Rattus norvegicus, UniProt P15823); test: Radioligand binding assay, adrenergic α1B ([3H]Prazosin); conditions: compound at 0.1 μM; 0.25 nM [3H]Prazosin; Wistar rat liver; read-out: Percentage inhibition of ligand binding, Adrenergic α1B
T3 construct: rat adrenergic α1B receptor obtained from Wistar Rat liver; from tissue; host or cells: Wistar rat liver
T3 sequence (P15823 1-515): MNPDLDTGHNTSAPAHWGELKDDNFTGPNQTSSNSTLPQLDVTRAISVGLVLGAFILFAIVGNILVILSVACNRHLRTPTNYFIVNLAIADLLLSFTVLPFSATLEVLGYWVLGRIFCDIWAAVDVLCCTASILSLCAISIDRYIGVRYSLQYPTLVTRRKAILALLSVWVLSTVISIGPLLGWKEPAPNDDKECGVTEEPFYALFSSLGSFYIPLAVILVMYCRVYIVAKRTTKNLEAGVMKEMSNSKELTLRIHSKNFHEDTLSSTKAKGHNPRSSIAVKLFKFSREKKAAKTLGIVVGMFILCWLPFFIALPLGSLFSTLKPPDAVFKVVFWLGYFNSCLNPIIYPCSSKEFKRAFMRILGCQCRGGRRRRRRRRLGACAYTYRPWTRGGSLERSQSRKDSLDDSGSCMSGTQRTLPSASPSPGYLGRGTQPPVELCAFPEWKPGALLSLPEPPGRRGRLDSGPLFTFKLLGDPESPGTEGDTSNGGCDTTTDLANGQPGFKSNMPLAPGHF
Method: To evaluate in radioligand binding assays the activity of compounds, rat adrenergic α1B receptor obtained from Wistar Rat liver (Garcia-S'ainz, J. et al, Biochem. Biophys. Res. Commun. 186:760, 1992; Michel, A. et al, Br. J. Pharmacol. 98:883, 1989) in a modified Tris-HCl buffer (50 mM Tris-HCl buffer, pH 7.4, 0.5 mM EDTA) was used. Compounds were incubated with 0.25 nM [^3H]Prazosin for 60 min at 25° C. Non-specific binding was estimated in the presence of 10 μM phentolamine. Receptor proteins were filtered and washed, the filters were then counted to determine [^3H]Prazosin specifically bound. Compounds were screened at 1 μM or lower, using 1% DMSO as vehicle. Compounds were tested in this biochemical assay and percent inhibition of specific binding was determined. Biochemical assay results are presented as the percent inhibition of specific binding in Tables B1A-B1D.

[4] = target: T4, human recombinant adrenergic α1D receptor (Homo sapiens, UniProt P25100); test: Radioligand binding assay, adrenergic α1D ([3H]Prazosin); conditions: compound at 0.1 μM; 0.6 nM [3H]Prazosin; HEK-293 cells; read-out: Percentage inhibition of ligand binding, Adrenergic α1D
T4 construct: expressed in transfected cells; host or cells: human embryonic kidney (HEK-293) cells
T4 sequence (P25100 1-572): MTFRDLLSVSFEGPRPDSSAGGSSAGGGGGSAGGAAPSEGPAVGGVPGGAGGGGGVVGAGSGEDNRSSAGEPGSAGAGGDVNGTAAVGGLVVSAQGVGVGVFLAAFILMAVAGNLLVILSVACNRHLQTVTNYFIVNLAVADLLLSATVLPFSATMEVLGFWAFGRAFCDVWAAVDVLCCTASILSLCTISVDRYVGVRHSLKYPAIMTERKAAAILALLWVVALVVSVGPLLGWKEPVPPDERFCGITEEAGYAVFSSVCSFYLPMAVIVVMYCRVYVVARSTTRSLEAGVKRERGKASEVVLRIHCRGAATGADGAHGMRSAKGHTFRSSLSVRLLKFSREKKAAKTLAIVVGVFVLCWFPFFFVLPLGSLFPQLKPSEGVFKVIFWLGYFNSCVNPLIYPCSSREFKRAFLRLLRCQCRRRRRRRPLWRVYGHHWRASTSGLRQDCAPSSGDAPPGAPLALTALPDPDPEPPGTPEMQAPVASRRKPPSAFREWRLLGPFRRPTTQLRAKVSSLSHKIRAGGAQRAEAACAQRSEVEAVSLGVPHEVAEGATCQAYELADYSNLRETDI
Method: To evaluate in radioligand binding assays the activity of compounds of the invention, human recombinant adrenergic α1D receptor expressed in human embryonic kidney (HEK-293) cells (Kenny, B. et al, Br. J. Pharmacol. 115(6):981, 1995) in a 50 mM Tris-HCl buffer, pH 7.4, was used. Compounds were incubated with 0.6 nM [3H]Prazosin for 60 min at 25° C. Non-specific binding was estimated in the presence of 10 μM phentolamine. Receptor proteins were filtered and washed, the filters were then counted to determine [3H]Prazosin specifically bound. Compounds were screened at 1 μM or lower, using 1% DMSO as vehicle. Biochemical assay results are presented as the percent inhibition of specific binding in Tables B1A-B1D.

SMILES	inhibition at 0.1 µM [1] [%]	inhibition at 0.1 µM [2] [%]	inhibition at 0.1 µM [3] [%]	inhibition at 0.1 µM [4] [%]
Cc1cc(-c2ccc(F)cc2)c2[nH]c3c(c2c1)CN(C)CC3 [Compound A7]	10	-9	2	4
Cc1cc2c3c(c1)c1c(n3CC2c2ccc(C)nc2)CCN(C)C1 (centres unmarked) [Compound B210]	–	14	–	–
